Biological target: CDK7 (Homo sapiens (Human), UniProt P50613)
Assay: Inhibition of kinase activity, CDK7
Assay type: biochemical
Settings: co-factors cyclin H and MNAT1
Protocol: Compounds of the invention were assayed for activity against a variety of different kinases. Exemplary results are presented as calculated IC50 values (Table A1 & A2). In Table A1 and A2 “A” represents a calculated IC50 value of less than 100 nM; “B” represents a calculated IC50 value of greater than or equal to 100 nM and less than 1 μM; and “C” represents a calculated IC50 value of 1 μM or greater. The co-factors used for each kinase in the assays were as follows: CDK7: cyclin H and MNAT1; CDK2: cyclin A; CDK9: cyclin K.

Sequence of CDK7 (P50613 whole entry): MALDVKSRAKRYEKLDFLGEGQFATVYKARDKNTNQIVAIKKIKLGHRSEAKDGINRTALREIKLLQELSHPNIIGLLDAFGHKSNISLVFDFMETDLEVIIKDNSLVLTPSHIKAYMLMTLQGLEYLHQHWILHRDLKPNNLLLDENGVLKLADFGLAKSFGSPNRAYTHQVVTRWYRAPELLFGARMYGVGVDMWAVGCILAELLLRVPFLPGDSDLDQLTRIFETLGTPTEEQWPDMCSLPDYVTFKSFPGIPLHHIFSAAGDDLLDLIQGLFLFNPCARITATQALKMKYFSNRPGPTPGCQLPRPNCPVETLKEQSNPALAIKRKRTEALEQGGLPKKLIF
Sequence of CDK7 (P51946 whole entry partner): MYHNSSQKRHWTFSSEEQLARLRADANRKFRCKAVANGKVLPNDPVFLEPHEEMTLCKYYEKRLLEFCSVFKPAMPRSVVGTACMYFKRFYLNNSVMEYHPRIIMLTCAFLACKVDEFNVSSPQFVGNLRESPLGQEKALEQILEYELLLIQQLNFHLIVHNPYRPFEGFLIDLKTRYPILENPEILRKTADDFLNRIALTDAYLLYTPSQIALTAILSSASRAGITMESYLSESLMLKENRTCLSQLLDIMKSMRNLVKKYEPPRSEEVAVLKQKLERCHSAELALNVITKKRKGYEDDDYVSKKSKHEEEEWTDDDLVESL
Sequence of CDK7 (P51948 whole entry partner): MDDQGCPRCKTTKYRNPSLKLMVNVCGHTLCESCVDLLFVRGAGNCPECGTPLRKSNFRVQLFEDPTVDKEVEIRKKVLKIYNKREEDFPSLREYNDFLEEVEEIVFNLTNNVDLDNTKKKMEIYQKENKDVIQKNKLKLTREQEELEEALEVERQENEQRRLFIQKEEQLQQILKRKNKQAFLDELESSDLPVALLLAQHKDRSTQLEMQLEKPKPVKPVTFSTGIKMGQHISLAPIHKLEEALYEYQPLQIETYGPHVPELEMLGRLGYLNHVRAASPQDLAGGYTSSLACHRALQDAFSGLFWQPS

Structure (SMILES)	IC50 [nM]
C=CC(=O)Nc1cccc(C(=O)Nc2ccc(Nc3n[nH]c4c3CN(C(=O)N[C@H](CN(C)C)c3ccccc3)C4(C)C)cc2)c1 [Compound 103, (S)-3-((4-(3-acrylamidobenzamido)phenyl)amino)-N-(2-(dimethylamino)-1-phenylethyl)-6,6-dimethyl-4,6-dihydropyrrolo[3,4-c]pyrazole-5(1H)-carboxamide]	< 100
C=CC(=O)Nc1cccc(C(=O)Nc2cccc(Nc3n[nH]c4c3CN(C(=O)N[C@H](CN(C)C)c3ccccc3)C4(C)C)c2)c1 [Compound 105, (S)-3-((3-(3-acrylamidobenzamido)phenyl)amino)-N-(2-(dimethylamino)-1-phenylethyl)-6,6-dimethyl-4,6-dihydropyrrolo[3,4-c]pyrazole-5(1H)-carboxamide]	< 100
C=CC(=O)Nc1ccc(C(=O)Nc2cccc(Nc3n[nH]c4c3CN(C(=O)NC(C)CN(C)C)C4(C)C)c2)cc1 (stereo not shown) [Compound 108, 3-((3-(4-acrylamidobenzamido)phenyl)amino)-N-(1-(dimethylamino)propan-2-yl)-6,6-dimethyl-4,6-dihydropyrrolo[3,4-c]pyrazole-5(1H)-carboxamide]	< 100
CN(C)C/C=C/C(=O)Nc1ccc(C(=O)Nc2cccc(Nc3n[nH]c4c3CN(C(=O)N[C@H](CO)c3ccccc3)C4(C)C)c2)cc1 [Compound 109, (S,E)-3-((3-(4-(4-(dimethylamino)but-2-enamido)benzamido)phenyl)amino)-N-(2-hydroxy-1-phenylethyl)-6,6-dimethyl-4,6-dihydropyrrolo[3,4-c]pyrazole-5(1H)-carboxamide]	< 100
C=CC(=O)Nc1cccc(Nc2n[nH]c3c2CN(C(=O)N[C@H](CN(C)C)c2ccccc2)C3(C)C)c1 [Compound 110, (S)-3-((3-acrylamidophenyl)amino)-N-(2-(dimethylamino)-1-phenylethyl)-6,6-dimethyl-4,6-dihydropyrrolo[3,4-c]pyrazole-5(1H)-carboxamide]	< 100
C=CC(=O)Nc1ccc(Nc2n[nH]c3c2CN(C(=O)N[C@H](CN(C)C)c2ccccc2)C3(C)C)cc1 [Compound 111, (S)-3-((4-acrylamidophenyl)amino)-N-(2-(dimethylamino)-1-phenylethyl)-6,6-dimethyl-4,6-dihydropyrrolo[3,4-c]pyrazole-5(1H)-carboxamide]	100 to 1000
C=CC(=O)N1CCC[C@@H](C(=O)Nc2n[nH]c3c2CN(C(=O)N[C@H](CN(C)C)c2ccccc2)C3(C)C)C1 [Compound 113, 3-((R)-1-acryloylpiperidine-3-carboxamido)-N-((S)-2-(dimethylamino)-1-phenylethyl)-6,6-dimethyl-4,6-dihydropyrrolo[3,4-c]pyrazole-5(1H)-carboxamide]	< 100
C=CC(=O)N1CCC[C@H](C(=O)Nc2n[nH]c3c2CN(C(=O)N[C@H](CN(C)C)c2ccccc2)C3(C)C)C1 [Compound 114, 3-((S)-1-acryloylpiperidine-3-carboxamido)-N-((S)-2-(dimethylamino)-1-phenylethyl)-6,6-dimethyl-4,6-dihydropyrrolo[3,4-c]pyrazole-5(1H)-carboxamide]	< 100
C=CC(=O)Nc1ccc(C(=O)N2CCCC(Nc3n[nH]c4c3CN(C(=O)N[C@H](CN(C)C)c3ccccc3)C4(C)C)C2)cc1 (stereo partly drawn) [Compound 115, 3-((1-(4-acrylamidobenzoyl)piperidin-3-yl)amino)-N-((S)-2-(dimethylamino)-1-phenylethyl)-6,6-dimethyl-4,6-dihydropyrrolo[3,4-c]pyrazole-5(1H)-carboxamide]	< 100
C=CC(=O)Nc1ccc(C(=O)N2CCC(Nc3n[nH]c4c3CN(C(=O)N[C@H](CN(C)C)c3ccccc3)C4(C)C)CC2)cc1 [Compound 116, (S)-3-((1-(4-acrylamidobenzoyl)piperidin-4-yl)amino)-N-(2-(dimethylamino)-1-phenylethyl)-6,6-dimethyl-4,6-dihydropyrrolo[3,4-c]pyrazole-5(1H)-carboxamide]	< 100
C=CC(=O)Nc1ccc(C(=O)N[C@H]2CCC[C@@H](Nc3n[nH]c4c3CN(C(=O)N[C@H](CN(C)C)c3ccccc3)C4(C)C)C2)cc1 [Compound 117, 3-(((1R,3S)-3-(4-acrylamidobenzamido)cyclohexyl)amino)-N-((S)-2-(dimethylamino)-1-phenylethyl)-6,6-dimethyl-4,6-dihydropyrrolo[3,4-c]pyrazole-5(1H)-carboxamide]	< 100
C=CC(=O)Nc1ccc(C(=O)N[C@@H]2CCC[C@@H](Nc3n[nH]c4c3CN(C(=O)N[C@H](CN(C)C)c3ccccc3)C4(C)C)C2)cc1 [Compound 118, 3-(((1R,3R)-3-(4-acrylamidobenzamido)cyclohexyl)amino)-N-((S)-2-(dimethylamino)-1-phenylethyl)-6,6-dimethyl-4,6-dihydropyrrolo[3,4-c]pyrazole-5(1H)-carboxamide]	< 100
C=CC(=O)Nc1ccc(C(=O)NC2CCC(Nc3n[nH]c4c3CN(C(=O)N[C@H](CN(C)C)c3ccccc3)C4(C)C)CC2)cc1 (stereo partly drawn) [Compound 119, (S)-3-((4-(4-acrylamidobenzamido)cyclohexyl)amino)-N-(2-(dimethylamino)-1-phenylethyl)-6,6-dimethyl-4,6-dihydropyrrolo[3,4-c]pyrazole-5(1H)-carboxamide]	< 100
C=CC(=O)Nc1cccc(C(=O)Nc2n[nH]c3c2CN(C(=O)N[C@H](CN(C)C)c2ccccc2)C3(C)C)c1 [Compound 120, (S)-3-(3-acrylamidobenzamido)-N-(2-(dimethylamino)-1-phenylethyl)-6,6-dimethyl-4,6-dihydropyrrolo[3,4-c]pyrazole-5(1H)-carboxamide]	< 100
C=CC(=O)N1CCC(C(=O)Nc2n[nH]c3c2CN(C(=O)N[C@H](CN(C)C)c2ccccc2)C3(C)C)CC1 [Compound 123, (S)-3-(1-acryloylpiperidine-4-carboxamido)-N-(2-(dimethylamino)-1-phenylethyl)-6,6-dimethyl-4,6-dihydropyrrolo[3,4-c]pyrazole-5(1H)-carboxamide]	< 100
C=CC(=O)Nc1ccc(C(=O)Nc2n[nH]c3c2CN(C(=O)N[C@H](CN(C)C)c2ccccc2)C3(C)C)cc1 [Compound 214, (S)-3-(4-acrylamidobenzamido)-N-(2-(dimethylamino)-1-phenylethyl)-6,6-dimethyl-4,6-dihydropyrrolo[3,4-c]pyrazole-5(1H)-carboxamide]	< 100
CCC(=O)Nc1ccc(C(=O)Nc2n[nH]c3c2CN(C(=O)N[C@H](CN(C)C)c2ccccc2)C3(C)C)cc1 [Compound 215, (S)-N-(2-(dimethylamino)-1-phenylethyl)-6,6-dimethyl-3-(4-propionamidobenzamido)-4,6-dihydropyrrolo[3,4-c]pyrazole-5(1H)-carboxamide]	< 100
C=CC(=O)Nc1ccc(C(=O)Nc2n[nH]c3c2CN(C(=O)N[C@H](CN(C)C)c2ccccc2)C3(C)C)c(OC)c1 [Compound 216, (S)-3-(4-acrylamido-2-methoxybenzamido)-N-(2-(dimethylamino)-1-phenylethyl)-6,6-dimethyl-4,6-dihydropyrrolo[3,4-c]pyrazole-5(1H)-carboxamide]	< 100
C=CC(=O)Nc1ccc(C(=O)Nc2n[nH]c3c2CN(C(=O)N[C@H](CN(C)C)c2ccccc2)C3(C)C)cc1OC [Compound 217, (S)-3-(4-acrylamido-3-methoxybenzamido)-N-(2-(dimethylamino)-1-phenylethyl)-6,6-dimethyl-4,6-dihydropyrrolo[3,4-c]pyrazole-5(1H)-carboxamide]	< 100
